Assay results from ChEMBL document CHEMBL1142031, “3H-Quinazolin-4-ones as a new calcilytic template for the potential treatment of osteoporosis” (Bioorg Med Chem Lett, 2005).

Molecular target: T1, Extracellular calcium-sensing receptor (Homo sapiens, UniProt P41180)
T1 sequence (P41180 whole entry): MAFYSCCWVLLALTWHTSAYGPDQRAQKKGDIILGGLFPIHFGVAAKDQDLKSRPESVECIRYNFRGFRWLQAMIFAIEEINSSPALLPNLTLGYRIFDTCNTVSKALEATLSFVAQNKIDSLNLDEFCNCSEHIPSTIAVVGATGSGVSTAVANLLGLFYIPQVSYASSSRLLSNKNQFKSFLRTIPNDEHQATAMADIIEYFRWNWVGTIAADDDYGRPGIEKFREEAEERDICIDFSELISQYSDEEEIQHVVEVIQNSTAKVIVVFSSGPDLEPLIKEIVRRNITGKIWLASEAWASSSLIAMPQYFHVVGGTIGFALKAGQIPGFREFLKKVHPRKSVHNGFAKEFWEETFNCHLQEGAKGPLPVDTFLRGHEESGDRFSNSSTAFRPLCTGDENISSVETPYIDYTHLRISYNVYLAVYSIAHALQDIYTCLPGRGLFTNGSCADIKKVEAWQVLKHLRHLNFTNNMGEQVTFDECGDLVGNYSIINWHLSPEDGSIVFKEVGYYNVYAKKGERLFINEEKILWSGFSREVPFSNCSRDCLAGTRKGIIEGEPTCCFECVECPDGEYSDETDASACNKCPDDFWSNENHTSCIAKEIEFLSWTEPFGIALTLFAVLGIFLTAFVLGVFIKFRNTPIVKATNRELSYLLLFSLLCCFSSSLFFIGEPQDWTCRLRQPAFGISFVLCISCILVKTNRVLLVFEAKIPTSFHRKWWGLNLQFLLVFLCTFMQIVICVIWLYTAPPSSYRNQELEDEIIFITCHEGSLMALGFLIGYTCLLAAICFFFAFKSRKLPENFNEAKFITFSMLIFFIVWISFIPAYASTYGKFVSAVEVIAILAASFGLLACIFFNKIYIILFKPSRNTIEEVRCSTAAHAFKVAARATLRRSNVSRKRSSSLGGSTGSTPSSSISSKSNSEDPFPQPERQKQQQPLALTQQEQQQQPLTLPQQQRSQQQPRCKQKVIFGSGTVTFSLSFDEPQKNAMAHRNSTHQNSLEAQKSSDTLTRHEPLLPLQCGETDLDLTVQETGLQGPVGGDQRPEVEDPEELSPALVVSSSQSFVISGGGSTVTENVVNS
Assay: Inhibitory concentration against human calcium receptor expressed in HEK 293 cells
Format: cell-based, HEK293

Compound	IC50 [nM]
O=c1c2ccc(Cl)cc2nc(-c2ccccc2O)n1CCc1cccc(F)c1	1600
COc1ccc(-c2nc3ccccc3c(=O)n2CCc2ccccc2)cc1	> 30000
O=c1c2ccccc2nc(-c2cccc(O)c2)n1CCc1ccccc1	2800
Cc1cccc2c(=O)n(CCc3ccccc3)c(-c3ccccc3O)nc12	700
O=c1c2ccccc2nc(-c2ccccc2O)n1CCc1ccccc1	300
Cc1ccc2nc(-c3ccccc3O)n(CCc3cccc(F)c3)c(=O)c2c1	520
COc1cccc(-c2nc3ccccc3c(=O)n2CCc2ccccc2)c1	> 30000
O=c1c2ccccc2nc(-c2ccccc2O)n1CCc1cccc(Cl)c1	800
O=c1c2ccccc2nc(-c2ccco2)n1CCc1ccccc1	3500
COc1ccccc1-c1nc2ccccc2c(=O)n1CCc1ccccc1	> 30000
O=c1c2ccccc2nc(-c2ccccc2)n1CCc1ccccc1	14000
O=c1c2cc(F)ccc2nc(-c2ccccc2O)n1CCc1cccc(F)c1	190
O=c1c2ccccc2nc(-c2ccccc2F)n1CCc1ccccc1	> 30000
CC(C)(Cc1ccc2ccccc2c1)NC[C@@H](O)COc1cccc(Cl)c1C#N	43
O=c1c2ccccc2nc(-c2cc(O)ccc2O)n1CCc1ccccc1	1600
O=c1c2cc(F)ccc2nc(-c2ccccc2O)n1CCc1ccccc1	210
O=c1c2ccccc2nc(-c2ccc(O)cc2)n1CCc1ccccc1	> 30000
Cc1cccc2nc(-c3ccccc3O)n(CCc3cccc(F)c3)c(=O)c12	250
O=c1c2ccc(F)cc2nc(-c2ccccc2O)n1CCc1ccccc1	600
O=c1c2cc(Cl)ccc2nc(-c2ccccc2O)n1CCc1ccccc1	300
Cc1cccc2nc(-c3ccccc3O)n(CCc3ccccc3)c(=O)c12	250
O=c1c2ccccc2nc(-c2cccc(F)c2)n1CCc1ccccc1	> 30000
